Patent US20260174858A1, “TARGETING THE m6A MRNA DEMETHYLASE FTO” (University of Virginia Patent Foundation, priority 2022, published 2026)

Assays:
Wild type C57BL/6J mice = test: Serum cytokines release in the LPS model of sepsis (ELISA); type: in vivo, mouse; details: FTOi 20 mg/kg i.p., 10 mg/kg LPS, serum at 10 hours after LPS
Description: Secreted IL-6 in the BMDMs medium or serum IL-6, TNF-alpha, and IL-1alpha were detected by ELISA (Mouse IL-1 alpha/IL-1F1 DuoSet, R&D Systems, DY400; Mouse IL-6 DuoSet, R&D Systems, DY406; Mouse TNF-alpha DuoSet, R&D Systems, DY410) according to the manufacturer's instructions.
To induced septic shock model, male or female C57BL/6 mice (6 to 10 weeks old) were primed with 10 mg/kg poly(I:C) via intraperitoneal injection. 6 hours later, primed mice were injected with 10 mg/kg LPS and monitored three time daily for a total 5 days. For FTO inhibitor treatment, Wild type C57BL/6J mice were pretreated with 20 mg/kg FB23-2 for 16 hours before sepsis induction. Next day, 20 mg/kg FB23-2 together with 10 mg/kg poly(I:C) were intraperitoneally injected, following with LPS challenge at 6 hours after poly(I:C) priming.

Human THP-1 cells = test: VEGFA release in human THP-1 cells (ELISA); type: cell-based; details: indicated dosage of FTOi, 24 hours or 48 hours; supernatant ELISA
Description: Primary WT or mutant mouse bone marrow derived macrophages (BMDMs) were isolated as previously described (4). BMDMs were cultured in IMDM (Gibco) basal medium containing 10% fetal bovine serum (FBS), 30% L929 supernatants, nonessential amino acids, sodium pyruvate, 2-mercaptoethanol, and antibiotics. THP-1 cells were cultured in RPMI 1640 medium with 10% FBS and antibiotics. Human RPE cells were isolated as previously described and cultured in DMEM medium with 10% FBS and antibiotics. All cells were maintained at 37° C. in a 5% CO2 environment.
The RPE-choroid complex was isolated from mouse eyes on day 3 after laser injury and treatment with FTO inhibitor or vehicle. Eye tissues were lysed by sonication with immunoprecipitation assay (RIPA) buffer (Sigma-Aldrich, R0278, USA) containing protease inhibitor (Sigma-Aldrich, 11836170001, USA), on ice for 15 minutes. The lysate was centrifuged at 20,000×g for 15 minutes at 4° C., and total protein in the lysates was quantified using the Thermo Scientific™ Pierce™ BCA™ Protein Assay (Fisher Scientific, PI23225, USA). VEGFA protein levels in the supernatants were measured by VEGF DuoSet ELISA (R&D Systems, DY493, USA), following the manufacturer's instructions. […] VEGFA levels in the supernatants were measured by mouse or human VEGF DuoSet ELISA (R&D Systems, DY493 or DY293B, USA), following the manufacturer's instructions.

[1] = system: Human RPE cell line, ARPE-19; test: TGF-β1-induced fibrotic response in ARPE-19 (immunoblotting, immunofluorescence); type: cell-based; details: FTOi pretreatment at indicated concentrations, TGF-β1 10 ng/ml 12 hours
Description: Cells and tissues were homogenized in RIPA buffer (R0278, Sigma) with protease and phosphatase inhibitors (A32959, Thermo Scientific). Protein concentration was determined with a Pierce BCA Protein Assay Kit (23225, Thermo Scientific). Equal quantities of protein boiled in LDS Sample Buffer (NP0007, Thermo Scientific) were resolved by Novex Tris-glycine gels (Invitrogen) and transferred onto LF PVDF membranes (1704274, Bio-Rad). The transferred membranes were blocked with Blocking Buffer (927-40000, LI-COR) and incubated with the following primary antibodies: anti-FTO pAb (AdipoGen Life Sciences, AG-25A-0089-C100, USA), anti-GAPDH mAb (Cell Signaling Technology, 97166), anti-F4/80 (Santa Cruz Biotechnology, sc-25830). The signal was visualized with species-specific secondary antibodies conjugated with IRDye and Odyssey® CLx Imaging System.

macrophage = test: mRNA abundance of other pro-angiogenic factors in macrophages (RT-PCR); type: cell-based, mouse; details: FTO inhibition
Description: Total RNA was extracted from mouse BMDMs or eye tissues with TRIzol™ Reagent (Thermo Fisher Scientific, 15596018, USA) and quantified by using a NanoDrop 2000 spectrophotometer (Thermo-Fisher Scientific, USA). Reverse transcription was performed using the QuantiTect Reverse Transcription kit (205313, QIAGEN). Target genes were amplified by real-time quantitative polymerase chain reaction (PCR) (Applied Biosystems, 7900 HT Fast Real-Time PCR system) with Power SYBR Green Master Mix. Relative gene expression was determined by the 2^−ΔΔCt method, and 18S rRNA or GAPDH (glyceraldehyde-3-phosphate dehydrogenase) was used as an internal control.

Cc1noc(C)c1-c1cc(Cl)c(Nc2ccccc2C(=O)NO)c(Cl)c1 [FB23-2]
Serum cytokines release (IL-6, TNF-α, IL-1α) (Wild type C57BL/6J mice): impairs serum cytokines release
VEGFA release (Human THP-1 cells): inhibits VEGFA release
Fibrotic response (αSMA, fibronectin) [1]: suppress the fibrotic response
mRNA abundance of other pro-angiogenic factors (Plgf, Pdgfa) (macrophage): did not significantly alter the mRNA abundance
